Laboratory results: patent publication US11578055B2, “Triazacyclododecansulfonamide (“TCD”)-based protein secretion inhibitors” (KEZAR LIFE SCIENCES, priority 2018, dated 2023)
Counter-ions that a name gives are not always drawn. Like-named read-outs stand apart in the source and are kept apart here.

Assays:
[1] = test system: multiple myeloma cell line NCl-H929; test: H929 Cell Viability Assay; assay type: cell-based, human; conditions: Homo sapiens, NCI-H929, 48 h
Procedure, shortened: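 Viability was determined by CellTiter-Glo luminescence after a 48 h, 37 °C exposure of NCI-H929 cells to serial compound dilutions in medium containing 10% FBS. Where stereochemistry is not shown, values refer to a mix of stereoisomers.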

[2] = In Vitro Microsome Stability Assay (mouse); assay type: in vitro ADME
Procedure, shortened: (§1)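 Test article, added from a 0.25 mM DMSO stock, was incubated with liver microsomes (20 mg/mL stock) in 0.1 M potassium phosphate at 37° C, with the reaction started by NADPH. Samples were quenched with acetonitrile containing internal standard at 0 and 30 min and analysed by LC-MS/MS. Values are % remaining at 30 min versus 0 min, using IS-normalised AUC ratios.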

[3] = In Vitro Microsome Stability Assay (human); assay type: in vitro ADME
Procedure, shortened: as §1

[4] = test system: multiple myeloma cell line U266B1; test: U266 Cell Viability Assay; assay type: cell-based, human; conditions: Homo sapiens, U-266, 48 hr
Procedure, shortened: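 Viability was measured by CellTiter-Glo luminescence after 48 h compound exposure at 37° C, 5% CO2. The cells were U266B1 multiple myeloma cells grown in RPMI 1640 plus 10% FBS. Where stereochemistry is not shown, values apply to the stereoisomer mixture.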

[5] = test system: full length TNFα (amino acids 1-233) fused to Gaussia Luciferase; test: Dox Induced TNFα-FL-Gluc Assay; assay type: cell-based; conditions: 24 hr, read-out: 24 hr Dox Inducible TNFaFLGluc 293FRT/TO: Mean IC50
Procedure, shortened: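 Compounds diluted in DMSO/medium with doxycycline were incubated at 37° C, 5% CO2 with 293 T-REx cells stably carrying a Tet-regulated TNFα(1-233)-Gaussia luciferase construct. Data for structures drawn without stereochemistry refer to stereoisomer mixtures.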

[6] = In Vitro Microsome Stability Assay (monkey); assay type: in vitro ADME
Procedure, shortened: as §1

[7] = In Vitro Microsome Stability Assay (rat); assay type: in vitro ADME
Procedure, shortened: as §1

[8] = test system: PD1 signal sequence plus 10 amino acids fused to Gaussia Luciferase (PD1-ss+10aa/Gaussia Luciferase); test: Dox Induced PD1-ss-Gluc Assay; assay type: cell-based; conditions: 24 hr, read-out: 24 hr Dox Inducible PD1ssGluc 293FRT/TO: Mean IC50
Procedure, shortened: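 Compound dilutions in DMSO/media containing doxycycline were applied to a stable, inducible 293 T-REx line carrying the luciferase fusion, then incubated at 37 °C, 5% CO2. Where stereochemistry is not drawn, values relate to isomer mixtures.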

[9] = H929, read-out: 48 hr H929 Viability Celltiter-Glo: Mean EC50
[10] = U266, read-out: 48 hr U266 Viability Celltiter-Glo: Mean EC50
[11] = mouse liver microsomes, 30 min w/ NADPH
[12] = human liver microsomes, 30 min w/ NADPH
[13] = monkey liver microsomes, 30 min w/ NADPH
[14] = rat liver microsomes, 30 min w/ NADPH

SMILES	EC50 [1, 9]	Liver Microsome Stability-% Left after 30 min w/ NADPH (%) Mouse ([2]; mouse, 30 min, NADPH)	Liver Microsome Stability-% Left after 30 min w/ NADPH (%) Human ([3]; human, 30 min, NADPH)	EC50 [4, 10]	IC50 ([5]; 293FRT/TO)	Liver Microsome Stability-% Left after 30 min w/ NADPH (%) Monkey ([6]; monkey, 30 min, NADPH)	Liver Microsome Stability-% Left after 30 min w/ NADPH (%) Rat ([7]; rat, 30 min, NADPH)	IC50 ([8]; 293FRT/TO)	EC50 ([1]; H929, Celltiter-Glo)	Liver Microsome Stability-% Left after 30 min w/ NADPH (%) Mouse [2, 11]	Liver Microsome Stability-% Left after 30 min w/ NADPH (%) Human [3, 12]	EC50 ([4]; U266, Celltiter-Glo)	IC50 ([5]; Dox inducible, 293FRT/TO cells)	Liver Microsome Stability-% Left after 30 min w/ NADPH (%) Monkey [6, 13]	Liver Microsome Stability-% Left after 30 min w/ NADPH (%) Rat [7, 14]	IC50 ([8]; Dox inducible, 293FRT/TO cells)
C=C1CN(S(=O)(=O)c2ccc(N(C)C)cc2)CCCN(CC2CCCCC2)CCCN(S(=O)(=O)N2CCN(c3ccccc3Cl)CC2)C1 [A83, 4-[(5-{[4-(2-chlorophenyl)piperazin-1-yl]sulfonyl}-9-(cyclohexylmethyl)-3-methylidene-1,5,9-triazacyclododecan-1-yl)sulfonyl]-N,N-dimethylaniline]	0.96 µM	23.4%	39.3%	> 25 µM	0.961 µM	34.9%	47.6%	0.0282 µM	–	–	–	–	–	–	–	–
C=C1CN(S(=O)(=O)c2ccc(N(C)C)cc2)CCCN(CC2CCCCC2)CCCN(S(=O)(=O)N2CCN(c3cccc(Cl)c3)CC2)C1 [A84, 4-[(5-{[4-(3-chlorophenyl)piperazin-1-yl]sulfonyl}-9-(cyclohexylmethyl)-3-methylidene-1,5,9-triazacyclododecan-1-yl)sulfonyl]-N,N-dimethylaniline]	> 25 µM	68.3%	60.6%	> 25 µM	> 25 µM	65.8%	67.3%	0.176 µM	–	–	–	–	–	–	–	–
C=C1CN(S(=O)(=O)c2ccc(N(C)C)cc2)CCCN(CC2CCCCC2)CCCN(S(=O)(=O)N2CCN(c3ccc(Cl)cc3)CC2)C1 [A85, 4-[(5-{[4-(4-chlorophenyl)piperazin-1-yl]sulfonyl}-9-(cyclohexylmethyl)-3-methylidene-1,5,9-triazacyclododecan-1-yl)sulfonyl]-N,N-dimethylaniline]	> 25 µM	52.2%	25.6%	> 25 µM	> 25 µM	42.9%	64.9%	0.0875 µM	–	–	–	–	–	–	–	–
C=C1CN(S(=O)(=O)c2ccc(C)cc2)CCCN(CC2CCCCC2)CCC(C)N(S(=O)(=O)c2ccc(C)cc2)C1 (centres unmarked) [B1, 5-(cyclohexylmethyl)-2-methyl-11-methylene-1,9-ditosyl-1,5,9-triazacyclododecane hydrochloride]	–	–	–	–	–	–	–	–	> 25 µM	0.02%	0.04%	> 25 µM	> 25 µM	0.02%	0.01%	0.424 µM
C=C1CN(S(=O)(=O)c2ccc(C)cc2)CCCN(CC2CCCCC2)CC(C)CN(S(=O)(=O)c2ccc(C)cc2)C1 (centres unmarked) [B2, 1-(cyclohexylmethyl)-3-methyl-5,9-bis(4-methylbenzenesulfonyl)-7-methylidene-1,5,9-triazacyclododecane]	–	–	–	–	–	–	–	–	> 25 µM	0.55%	0.35%	> 25 µM	> 25 µM	0.23%	1.46%	1.72 µM
CN(C)c1ccc(S(=O)(=O)N2CCCN(CC3CCCCC3)CCCN(S(=O)(=O)N3CCCCC3)CC2)cc1 [B3, 4-{[8-(cyclohexylmethyl)-4-(piperidine-1-sulfonyl)-1,4,8-triazacycloundecan-1-yl]sulfonyl}-N,N-dimethylaniline]	–	–	–	–	–	–	–	–	9.44 µM	0.15%	0.26%	12.6 µM	> 25 µM	0.08%	0.1%	7.38 µM
CN(C)c1ccc(S(=O)(=O)N2CCCN(CC3CCCCC3)CCCN(S(=O)(=O)N3CCCCC3)C2)cc1 [B4, 4-{[7-(cyclohexylmethyl)-3-(piperidine-1-sulfonyl)-1,3,7-triazecan-1-yl]sulfonyl}-N,N-dimethylaniline]	–	–	–	–	–	–	–	–	> 25 µM	2.21%	12.1%	16.6 µM	> 25 µM	1.7%	2.79%	> 25 µM
CN(C)c1ccc(S(=O)(=O)N2CCCCN(S(=O)(=O)N3CCC(c4ccccc4)CC3)CCCN(CC3CCCCC3)CCC2)cc1 [B5]	–	–	–	–	–	–	–	–	> 25 µM	0.24%	0.54%	> 25 µM	> 25 µM	0.21%	7.08%	1.5 µM
CN(C)c1ccc(S(=O)(=O)NCCCN(CCCNS(=O)(=O)N2CCC(c3ccccc3)CC2)CC2CCCCC2)cc1 [B7, N-{3-[(cyclohexylmethyl)(3-{[(4-phenylpiperidin-1-yl)sulfonyl]amino}propyl)amino]propyl}-4-(dimethylamino)benzene-1-sulfonamide]	–	–	–	–	–	–	–	–	6.86 µM	1.47%	0.03%	7.48 µM	24.3 µM	0.04%	0.58%	6.9 µM
CN(C)c1ccc(S(=O)(=O)N2C/C=C\CN(S(=O)(=O)N3CCC(c4ccccc4)CC3)CCCN(CC3CCCCC3)CCC2)cc1 [B8, 4-{[(11Z)-5-(cyclohexylmethyl)-9-[(4-phenylpiperidin-1-yl)sulfonyl]-1,5,9-triazacyclotridec-11-en-1-yl]sulfonyl}-N,N-dimethylaniline]	–	–	–	–	–	–	–	–	> 25 µM	17.1%	22.1%	> 25 µM	> 25 µM	15.5%	23.8%	> 25 µM
CN(C)c1ccc(S(=O)(=O)N2C/C=C/CN(S(=O)(=O)N3CCC(c4ccccc4)CC3)CCCN(CC3CCCCC3)CCC2)cc1 [B9, 4-{[(11E)-5-(cyclohexylmethyl)-9-[(4-phenylpiperidin-1-yl)sulfonyl]-1,5,9-triazacyclotridec-11-en-1-yl]sulfonyl}-N,N-dimethylaniline]	–	–	–	–	–	–	–	–	> 25 µM	0.36%	0.49%	> 25 µM	> 25 µM	0.26%	3.74%	3.64 µM
C=C1CN(S(=O)(=O)c2ccc(N(C)C)cc2)C(C)CCN(CC2CCCCC2)CCCN(S(=O)(=O)N2CCC(c3ccccc3)CC2)C1 (centres unmarked) [B19, 4-{[5-(cyclohexylmethyl)-2-methyl-11-methylidene-9-[(4-phenylpiperidin-1-yl)sulfonyl]-1,5,9-triazacyclododecan-1-yl]sulfonyl}-N,N-dimethylaniline]	–	–	–	–	–	–	–	–	> 25 µM	13.5%	9.46%	> 25 µM	15.4 µM	0.98%	15.7%	0.221 µM
CN(C)c1ccc(S(=O)(=O)N2CCCN(CC3CCCCC3)CCCN(S(=O)(=O)N3CCC(c4ccccc4)CC3)CC(=O)C2)cc1 [B20, 9-(cyclohexylmethyl)-1-((4-(dimethylamino)phenyl)sulfonyl)-5-((4-phenylpiperidin-1-yl)sulfonyl)-1,5,9-triazacyclododecan-3-one]	–	–	–	–	–	–	–	–	> 25 µM	3.41%	5.43%	> 25 µM	> 25 µM	1.73%	11.1%	0.794 µM
